Reference: patent US6069156A, “Indole derivatives as cGMP-PDE inhibitors” (Fujisawa Pharmaceutical Co., Ltd., priority 1995, dated 2000)

Tests used:
[1] = test system: Coronary vasospasm induced with vasopressin; assay: Vasopressin Induced-vasospasm Model (ST segment depression); type: in vivo, Male Donryu rats; settings: 10 mg/kg orally 30 minutes before vasopressin 0.2 iu/kg
Protocol: Vasopressin Induced-vasospasm Model
Male Donryu rats, weighing 160-200 g, were anesthetized intraperitoneally with sodium pentobarbital (60 mg/kg) 15 minutes before intravenous administration of vasopressin, and the femoral vein was cannulated with polyethylene tubing (diameter 0.8 mm). Coronary vasospasm was induced with vasopressin (0.2 iu/kg) dissolved in saline through the cannula in the femoral vein. The each test compound (10 mg/kg) was administered orally 30 minutes before the administration of vasopressin. The standard limb lead II of the electrocardiogram was recorded with an electrocardiograph. The depression of ST segment was measured as the difference in the amplitudes of the ST segment after and just before the administration of vasopressin. The amplitudes of ST segment were measured at intervals of 0.5 minutes for 5 minutes after administration of vasopressin.

FK506 nephritis = assay: FK506 Nephritis Model (a); type: in vivo, Spontaneously hypertensive rats; settings: orally twice a day for two weeks; FK506 18 mg/kg daily for 1 week
Protocol: (§1) (a) Spontaneously hypertensive rats weighing 250-300 g were used. FK506 dissolved in olive-oil containing 5% ethanol was given orally to the animals in a daily dose 18 mg/kg for 1 week. After the last dosing of FK506, 24-hours urine was collected for urinalysis. Blood was withdrawn from the abdominal aorta under ether anesthesia 24 hours after the last dosing of FK506, and plasma was separated by centrifugation for biochemical analysis.
The each test compound was dissolved in PEG 400 and given orally by the volume of 1 ml/kg twice a day for two weeks.
(§2) Biochemistry and urinalysis: Urine volume, plasma creatinine, urine creatinine, blood urea nitrogen, plasma sodium, urine sodium, plasma potassium and urine potassium, were measured with an autoanalyzer (TBA-20R Toshiba, OM-6020 Daiichi Kagaku).

[2] = Toxicity by repetitive oral administration; type: in vivo, SD rat; settings: 32 mg/kg once a day orally, 14 consecutive days
[3] = test system: streptozotocin-induced diabetes mellitus; assay: Diabetic Glomerulosclerosis Model (streptozotocin); type: in vivo, Male SD rats
Protocol: Diabetic Glomerulosclerosis Model
6 weeks old Male SD rats were treated with streptozotocin (60 mg/kg i.v.) to induce diabetes mellitus. One week after streptozotocin treatment, test compound, 3.2, 10 mg/kg was started to be orally administered twice a day for 16 weeks.

cGMP-PDE = target: T1, cGMP-PDE (Homo sapiens, UniProt O76074); assay: cGMP-phosphodiesterase (PDE) Assay (human platelets); type: biochemical
T1 construct: cGMP-PDE was separated from other isozymes in human platelets; from tissue; host or cells: human platelets
Protocol: cGMP-phosphodiesterase (PDE) Assay
cGMP-PDE was separated from other isozymes in human platelets by a modification of the method of Thompson et. al. (Cyclic Nucleotide Phosphodiesterase (PDE), in Methods of Enzymatic analysis, Vol 4, p127-234, 1984). In enzyme inhibition assays, the test compounds were dissolved in 10% DMSO and then diluted with assay buffer (50 mM Tris-HCl, pH 8.0, 0.1 mM dithiothreitol, 2 mM EGTA and 10 u/ml snake venom), at final concentrations ranging from 10^-10 to 10^-6 M. Assays were performed at 0.1 μM substrate ([^3 H]-cGMP) concentration, at 30° C. for 10 minutes using enzyme dilutions which gave 10-20% hydrolysis of substrate. Each assay was initiated by addition of substrate and terminated by addition of anion exchange resin (Dowex 1-X8, 25 μg/mg) followed by centrifugation for 10 minutes (3000 rpm, at 4° C.). Radioactivity of supernatant (^3 H-GMP) was assayed by liquid scintillation counting.

corpora cavernosa = assay: Effect on Nitroprusside or Ach-induced Relaxation in Isolated Rat Corpora Cavernosa; design: species or system Male SD rats; settings: compound at 10^-7 M
Protocol: (a) Effect of Test Compound on Nitroprusside or Ach-induced Relaxation in Isolated Rat Corpora Cavernosa
Male SD rats were anesthetized with sodium pentobarbital 50 mg/kg intraperitoneally, and the corpora cavernosa was excised. The tunica albuginea was dissected according to the methods described by Italiano et al. (Pharmacological Research, 30, No.4, 1994) and used for in vitro pharmacological study. The erectile tissue strip was placed in a 25 ml organ bath containing Krebs-Ringer solution. The bath was maintained at 37° C. and bubbled with 95% O2 and 5% CO2. The strip was stretched with a resting force of 0.25 g, and isometric contraction were recorded via force development transducer on a recorder.
The strip was equilibrated in the Krebs-Ringer solution for about 60 minutes, and preconstructed by 0.1 mM norepinephrine to ascertain the responsibility of each preparation. The strip was washed several times, and then constricted by 0.1 mM norepinephrine. After getting stable constrictile response to norepinephrine, the first dose-response curve for sodium nitroprusside or Ach was obtained. After washing a few times for 60 minutes, the strip was constricted by norepinephrine again, and the second dose-response curve for sodium nitroprusside or Ach was obtained. The test compound was added 30 minutes before adding norepinephrine.

Cyclosporin nephritis = assay: Cyclosporin Nephritis Model; type: in vivo, Spontaneously hypertensive rats; settings: 3.2 mg/kg orally twice a day for two weeks; cyclosporin 50 mg/kg daily
Protocol: Cyclosporin Nephritis Model
as §1, with “Spontaneously” for “(a) Spontaneously”, “Cyclosporin” for “FK506”, “50” for “18”, “2 weeks.” for “1 week.”, “cyclosporin,” for “FK506,”, “analysis. The animal were bled to death and kidneys were removed for histopathological examination.” for “analysis.”
The each test compound (3.2 mg/kg) was dissolved in PEG 400 and given orally by the volume of 1 ml/kg twice a day for two weeks.
as §2
Histopathology: The kidneys were fixed in phosphate-buffered 10% formalin and its paraffin specimens were prepared and these sections were stained with hematoxylin.

[4] = test system: aorta (spirally cut strips); assay: Smooth Muscle Relaxant: noradrenaline-contracted rat aorta strips; design: species or system male Wistar rats; settings: contraction by noradrenaline 1 μM, 37° C.
Protocol: The aorta were carefully removed from male Wistar rats, cleaned of fat and extraneous tissue. Spirally cut strips of the aorta were placed in a 25 ml organ bath containing Tyrode solution of the following composition (mM); NaCl, 137; KCl, 2.7; CaCl2, 1.8; NaH2 PO4, 0.4; NaHCO3, 12.0; MgSO4, 1.1; glucose, 5.6. The bath was maintained at 37° C. and bubbled with 95% O2 and 5% CO2. The spirally cut strip was stretched to a resting force of 1.0 g, and the isometric contraction was recorded via a force development transducer on an ink writing recorder. Tissues were equilibrated for 60 minutes before contraction was induced by noradrenaline (NA, 1 μM). The test compounds were cumulatively added to organ bath in increasing concentrations ranging from 10^-8 to 10^-5 M, after maximum stable constriction to NA had been achieved.

[5] = 10 mg/kg orally twice a day for 16 weeks
[6] = 3.2, 10 mg/kg orally twice a day for 16 weeks

Q: With `CCCc1c(C(=O)C(C)C)c2ccc(C(N)=O)cc2n1Cc1ccccc1Cl` [Example 6, 1-(2-chlorobenzyl)-3-isobutyryl-2-propylindole-6-carboxamide] as the molecule, how does the “inhibiting activity (depression of ST segment)” value [1] read?
A: Its value is “more than 50%”.

Q: What about the “recovery in a measure of creatinine clearance (ml/kg/min)” value (FK506 nephritis) of the same molecule?
A: Its value is “more than 45%”.

Q: What about the “recovery in urinary sodium excretion” value (FK506 nephritis) of the same molecule?
A: Its value is “more than 50%”.

Q: And the “death on repetitive oral administration” value [2]?
A: Its value is “the dead at dose of 32 mg/kg once a day for 14 consecutive days could not be observed”.

Q: And the “4-hydroxyproline contents in renal cortex” value [3, 5]?
A: The value was “perfectly inhibited the increased 4-hydroxyproline contents in renal cortex”.

Q: And the “reduction on average of the elimination of protein in urine” value [3, 5]?
A: Its value is 37%.

Q: And the “valiance of RR intervals in cardioelectrography” value [3, 5]?
A: The value was “perfectly recovered the reduced valiance of RR intervals”.

Q: What about the “blood flow in ears” value [3, 6] of the same molecule?
A: The value was “improved the decreased blood flow in ears”.

Q: And the “onset of diabetic cataract” value [3, 6]?
A: The value was “retarded the onset of diabetic cataract”.

Q: And the “parameters reflecting the abnormalities of peripheral circulation” value [3, 6]?
A: Its value is “improved the parameters reflecting the abnormalities of peripheral circulation”.

Q: And the “skin temperature on foot pad” value [3, 6]?
A: The value was “raised the decreased skin temperature on foot pad”.

Q: And the IC50 (cGMP-PDE)?
A: Its IC50 is less than 100 nM.

Q: And the “Ach-induced relaxation of corpora cavernosa” value (corpora cavernosa)?
A: Its value is “potentiated Ach-induced relaxation of corpora cavernosa”.

Q: And the “nitroprusside-induced relaxation of corpora cavernosa” value (corpora cavernosa)?
A: Its value is “potentiated nitroprusside-induced relaxation of corpora cavernosa”.

Q: What about the “100 μM Ach-induced relaxant response” value (corpora cavernosa; contraction by 10^-4 M norepinephrine, control 11.0%) of the same molecule?
A: The value was 18.7%.

Q: What about the “recovery in a measure of blood urea nitrogen” value (Cyclosporin nephritis) of the same molecule?
A: The value was “more than 50%”.

Q: And the “recovery in a measure of creatinine clearance (ml/kg/min)” value (Cyclosporin nephritis)?
A: The value was “more than 40%”.

Q: And the IC50 [4]?
A: The IC50 was less than 100 nM.
